Measured values reported in the NIST ThermoML archive (doi:10.1021/acs.jced.5b00259).

Assay: xn = mol fraction of the nth substance listed
Conditions: 100 kPa, Liquid

CCOS(=O)(=O)[O-].CC[NH+]=C(N(C)C)N(C)C [2-ethyl-1,1,3,3-tetramethylguanidinium ethyl sulfate] + CCCO
Conditions | mass density [kg/m3] | viscosity [mPa·s]
293.15 K, x1 = 0.0997 | 898.6 | 4.426
293.15 K, x1 = 0.2003 | 964.92 | 8.127
293.15 K, x1 = 0.3066 | 1016.48 | 16.78
293.15 K, x1 = 0.3996 | 1051.52 | 27.09
293.15 K, x1 = 0.5016 | 1082.4 | 48.51
293.15 K, x1 = 0.5989 | 1106.32 | 82.64
293.15 K, x1 = 0.6984 | 1126.59 | 134.4
293.15 K, x1 = 0.7999 | 1144.02 | 243.1
293.15 K, x1 = 0.8981 | 1158.38 | 405.5
293.15 K, x1 = 1 | 1170.76 | 673.4
298.15 K, x1 = 0.0997 | 894.7 | 3.9
298.15 K, x1 = 0.2003 | 961.16 | 7.044
298.15 K, x1 = 0.3066 | 1012.78 | 13.97
298.15 K, x1 = 0.3996 | 1047.86 | 22.36
298.15 K, x1 = 0.5016 | 1078.78 | 38.84
298.15 K, x1 = 0.5989 | 1102.73 | 63.88
298.15 K, x1 = 0.6984 | 1123.01 | 100.3
298.15 K, x1 = 0.7999 | 1140.47 | 174.3
298.15 K, x1 = 0.8981 | 1154.86 | 278.2
298.15 K, x1 = 1 | 1167.24 | 441.5
303.15 K, x1 = 0.0997 | 890.9 | 3.455
303.15 K, x1 = 0.2003 | 957.41 | 6.152
303.15 K, x1 = 0.3066 | 1009.1 | 12.3
303.15 K, x1 = 0.3996 | 1044.26 | 18.74
303.15 K, x1 = 0.5016 | 1075.17 | 31.58
303.15 K, x1 = 0.5989 | 1099.15 | 50.4
303.15 K, x1 = 0.6984 | 1119.44 | 76.66
303.15 K, x1 = 0.7999 | 1136.93 | 128.5
303.15 K, x1 = 0.8981 | 1151.36 | 197.5
303.15 K, x1 = 1 | 1163.76 | 302.5
308.15 K, x1 = 0.0997 | 887.03 | 3.077
308.15 K, x1 = 0.2003 | 953.65 | 5.412
308.15 K, x1 = 0.3066 | 1005.42 | 10.72
308.15 K, x1 = 0.3996 | 1040.62 | 15.88
308.15 K, x1 = 0.5016 | 1071.58 | 26.07
308.15 K, x1 = 0.5989 | 1095.58 | 40.53
308.15 K, x1 = 0.6984 | 1115.89 | 59.78
308.15 K, x1 = 0.7999 | 1133.41 | 97.5
308.15 K, x1 = 0.8981 | 1147.85 | 145.3
308.15 K, x1 = 1 | 1160.28 | 214.6
313.15 K, x1 = 0.0997 | 883.16 | 2.751
313.15 K, x1 = 0.2003 | 949.88 | 4.79
313.15 K, x1 = 0.3066 | 1001.73 | 9.145
313.15 K, x1 = 0.3996 | 1036.98 | 13.59
313.15 K, x1 = 0.5016 | 1068 | 21.82
313.15 K, x1 = 0.5989 | 1092.03 | 33.1
313.15 K, x1 = 0.6984 | 1112.37 | 47.59
313.15 K, x1 = 0.7999 | 1129.9 | 75.47
313.15 K, x1 = 0.8981 | 1144.35 | 110
313.15 K, x1 = 1 | 1156.8 | 157.2
318.15 K, x1 = 0.0997 | 879.26 | 2.471
318.15 K, x1 = 0.2003 | 946.11 | 4.266
318.15 K, x1 = 0.3066 | 998.04 | 7.69
318.15 K, x1 = 0.3996 | 1033.37 | 11.73
318.15 K, x1 = 0.5016 | 1064.43 | 18.48
318.15 K, x1 = 0.5989 | 1088.5 | 27.42
318.15 K, x1 = 0.6984 | 1108.86 | 38.53
318.15 K, x1 = 0.7999 | 1126.4 | 59.7
318.15 K, x1 = 0.8981 | 1140.87 | 84.19
318.15 K, x1 = 1 | 1153.33 | 118.3
323.15 K, x1 = 0.0997 | 875.35 | 2.228
323.15 K, x1 = 0.2003 | 942.33 | 3.819
323.15 K, x1 = 0.3066 | 994.35 | 6.777
323.15 K, x1 = 0.3996 | 1029.73 | 10.2
323.15 K, x1 = 0.5016 | 1060.87 | 15.79
323.15 K, x1 = 0.5989 | 1084.97 | 23.01
323.15 K, x1 = 0.6984 | 1105.36 | 31.66
323.15 K, x1 = 0.7999 | 1122.93 | 47.99
323.15 K, x1 = 0.8981 | 1137.4 | 66.48
323.15 K, x1 = 1 | 1149.87 | 91.22
